Experimental data reported in patent US12398151B2, “Sumo inhibitor compounds and uses thereof” (SUVALENT THERAPEUTICS, INC., priority 2019, dated 2025).
Read-outs that look alike come from different tables or passages of the source.

How the values were obtained:
Atg7 = target: T1, Atg7 (Homo sapiens, UniProt O95352); test: Atg7 activating enzyme (E1) inhibition; format: biochemical; details: 25 uM compound, 60 min preincubation; read-out: Atg7 percent inhibition of adduct formation
T1 sequence (O95352 1-703): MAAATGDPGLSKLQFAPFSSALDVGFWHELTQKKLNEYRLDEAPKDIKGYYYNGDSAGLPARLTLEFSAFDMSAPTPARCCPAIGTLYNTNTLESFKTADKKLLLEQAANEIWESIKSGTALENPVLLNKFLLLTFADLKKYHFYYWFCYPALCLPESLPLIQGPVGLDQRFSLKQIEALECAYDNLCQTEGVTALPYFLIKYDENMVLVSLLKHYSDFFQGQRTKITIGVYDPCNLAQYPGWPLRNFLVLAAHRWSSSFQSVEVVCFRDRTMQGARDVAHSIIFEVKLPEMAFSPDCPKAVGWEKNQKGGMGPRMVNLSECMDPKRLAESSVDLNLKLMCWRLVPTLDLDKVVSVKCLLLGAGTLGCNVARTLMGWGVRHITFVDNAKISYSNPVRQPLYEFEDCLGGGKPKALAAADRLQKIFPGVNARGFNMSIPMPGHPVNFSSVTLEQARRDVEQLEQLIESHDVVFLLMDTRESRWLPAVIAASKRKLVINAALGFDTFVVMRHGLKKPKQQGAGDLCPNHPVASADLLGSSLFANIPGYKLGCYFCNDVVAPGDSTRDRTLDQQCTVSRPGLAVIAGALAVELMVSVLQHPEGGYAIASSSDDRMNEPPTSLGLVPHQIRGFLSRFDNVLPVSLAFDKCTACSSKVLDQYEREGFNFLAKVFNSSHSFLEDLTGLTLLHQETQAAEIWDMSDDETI
Summary of the method: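 Compounds were assessed for their ability to inhibit the Atg7 activating enzyme (E1) following previously published methods and protocols. The E1 enzyme was preincubated with compound, and activity was expressed as the percent inhibition of adduct formation, reported together with the compound concentration in uM and the E1–compound preincubation time in minutes.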

SUMO E1 = target: T2, SUMO E1 (Homo sapiens, UniProt Q9UBT2); test: SUMO E1 inhibition: UBC9-SUMO1 conjugation by SDS gel electrophoresis; format: biochemical; details: for inhibition at 10 µM: 10 uM compound; for inhibition at 9 µM: 9 uM compound; for inhibition at 27 µM: 27 uM compound
T2 sequence (Q9UBT2 1-640): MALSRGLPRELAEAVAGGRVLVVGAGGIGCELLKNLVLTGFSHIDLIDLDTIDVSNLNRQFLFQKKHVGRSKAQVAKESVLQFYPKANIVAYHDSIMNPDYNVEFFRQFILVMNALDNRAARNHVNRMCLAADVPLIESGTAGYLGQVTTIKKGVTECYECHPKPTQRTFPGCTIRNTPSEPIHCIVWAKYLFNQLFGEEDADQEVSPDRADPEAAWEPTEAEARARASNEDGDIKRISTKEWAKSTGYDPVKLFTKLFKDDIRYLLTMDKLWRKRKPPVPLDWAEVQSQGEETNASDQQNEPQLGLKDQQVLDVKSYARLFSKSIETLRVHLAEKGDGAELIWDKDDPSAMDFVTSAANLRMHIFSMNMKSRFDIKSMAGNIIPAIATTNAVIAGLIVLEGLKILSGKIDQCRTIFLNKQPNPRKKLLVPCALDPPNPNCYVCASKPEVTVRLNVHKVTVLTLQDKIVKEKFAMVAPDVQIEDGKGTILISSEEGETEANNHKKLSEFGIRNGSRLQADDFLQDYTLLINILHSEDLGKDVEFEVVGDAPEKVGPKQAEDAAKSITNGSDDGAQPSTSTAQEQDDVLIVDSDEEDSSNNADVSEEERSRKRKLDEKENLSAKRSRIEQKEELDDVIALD
T2 sequence (Q9UBE0 1-346 partner): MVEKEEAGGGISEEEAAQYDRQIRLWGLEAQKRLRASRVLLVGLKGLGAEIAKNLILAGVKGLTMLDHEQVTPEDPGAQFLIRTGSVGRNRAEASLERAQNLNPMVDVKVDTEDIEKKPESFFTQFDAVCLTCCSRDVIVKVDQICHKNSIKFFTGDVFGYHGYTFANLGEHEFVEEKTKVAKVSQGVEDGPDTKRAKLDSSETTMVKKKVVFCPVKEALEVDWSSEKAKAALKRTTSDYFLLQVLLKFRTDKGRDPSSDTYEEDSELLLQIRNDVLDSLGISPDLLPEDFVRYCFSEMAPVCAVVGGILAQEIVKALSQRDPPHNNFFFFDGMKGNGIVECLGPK
Summary of the method: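 SUMO E1 was preincubated with compound for a set time, then UBC9, SUMO1 and ATP were added and incubated at 37 °C. After Laemmli quench, UBC9-SUMO1 adduct was resolved by SDS gel; percent inhibition from band intensity versus no-compound control, reported with compound concentration (μM) and preincubation time (min).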

[1] = 60 min preincubation, read-out: SUMO E1 percent inhibition of adduct formation
[2] = 25 uM compound, 60 min preincubation, read-out: SUMO E1 percent inhibition of adduct formation
[3] = 30 min preincubation, read-out: SUMO E1 percent inhibition of adduct formation

| Compound | inhibition at 25 µM (Atg7) [%] | inhibition at 25 µM (SUMO E1; [2]) [%] | also measured |
| --- | --- | --- | --- |
| C=CC(=O)N1Cc2ccc(Br)cc2[C@@H](c2ccc(Cl)cc2)C1 [Compound 65] | < 1 | – | SUMO E1 percent inhibition of adduct formation (SUMO E1; 25 uM compound, 60 min preincubation, 25 µM): 25 uM 60 min 10% |
| C=CC(=O)N1Cc2sc(Br)cc2[C@@H](c2ccccc2C)C1 [Compound 72] | < 1 | – | inhibition at 10 µM (SUMO E1; [1]): 100% |
| C=CC(=O)N1Cc2sc(C)cc2[C@@H](c2ccccc2)C1 [Compound 74] | < 1 | 10 | – |
| C=CC(=O)N1Cc2sc(Cl)cc2[C@@H](C2=CN(C)CC=C2)C1 [Compound 145] | < 1 | – | inhibition at 9 µM (SUMO E1; [3]): < 1% |
| C=CC(=O)N1CCc2cc(Oc3cccnc3)ccc2C1 [Compound 54] | < 1 | 10 | – |
| C=CC(=O)N1Cc2sc(C)cc2[C@@H](c2ccccc2C)C1 [Compound 89] | < 1 | – | inhibition at 9 µM (SUMO E1; [3]): 95% |
| C=CC(=O)N1Cc2sc(Cl)cc2[C@@H](c2ccccc2OC)C1 [Compound 109] | 80 | – | inhibition at 27 µM (SUMO E1; [3]): 30% |
| C=CC(=O)N1Cc2cc(OCC(C)C)ccc2[C@@H](c2ccccc2)C1 [Compound 48] | < 1 | 30 | – |
| C=CC(=O)Nc1cccc([C@H]2CN(C(=O)C=C)Cc3ccccc32)c1 [Compound 52] | < 1 | 50 | – |
| C=CC(=O)N1Cc2ccc(NC(=O)c3ccc(F)cc3)cc2C1 [Compound 15] | < 1 | < 1 | – |
| C=CC(=O)N1CCc2cc(Cc3ccccc3)ccc2C1 [Compound 7] | < 1 | – | inhibition at 25 µM (SUMO E1; 25 uM compound, 30 min preincubation, read-out: SUMO E1 percent inhibition of adduct formation): 20% |
| C=CC(=O)N1CCc2cc(CC(C)C)ccc2C1 [Compound 19] | < 1 | 40 | – |
| C=CC(=O)N1Cc2cccc(Br)c2[C@@H](c2ccccc2C)C1 [Compound 69] | < 1 | – | inhibition at 10 µM (SUMO E1; [1]): 60% |
| C#CC(=O)N1Cc2sc(Cl)cc2[C@@H](c2ccccc2C)C1 [Compound 93] | 100 | – | inhibition at 9 µM (SUMO E1; [3]): 95% |
| C=CC(=O)N1Cc2ccccc2C[C@H]1c1ccccc1 [Compound 26] | < 1 | 10 | – |
| COC(=O)/C=C/C(=O)N1Cc2ccccc2[C@@H](c2ccccc2)C1 [Compound 37] | < 1 | 40 | – |
| C=CC(=O)N1Cc2cccc(Br)c2[C@@H](c2ccccc2OC)C1 [Compound 71] | < 1 | 20 | – |
| C=CC(=O)N1Cc2sc(Cl)cc2[C@@H](c2ccco2)C1 [Compound 148] | < 1 | – | inhibition at 9 µM (SUMO E1; [3]): < 1% |
| C=CC(=O)N1Cc2ccccc2[C@@H](C(=O)Nc2ccccc2)C1 [Compound 32] | < 1 | < 1 | – |
| C=CC(=O)N1Cc2sc(Cl)cc2[C@@H](c2ccccc2OCCCN2CCCC2)C1 [Compound 153] | < 1 | – | inhibition at 6 µM (SUMO E1; 6 uM compound, 15 min preincubation, read-out: SUMO E1 percent inhibition of adduct formation): < 1% |
| C=CC(=O)N1Cc2sc(Cl)cc2[C@@H](c2ccccc2F)C1 [Compound 114] | < 1 | – | inhibition at 1 µM (SUMO E1; 1 uM compound, 30 min preincubation, read-out: SUMO E1 percent inhibition of adduct formation): 100% |
| C=CC(=O)N1Cc2ccc(Oc3cccnc3)cc2[C@@H](c2ccccc2)C1 [Compound 31] | < 1 | < 1 | – |
| C=CC(=O)N1C[C@H](c2ccccc2)c2cc(Br)ccc2C1(C)C [Compound 67] | < 1 | < 1 | – |
| Cc1ccccc1[C@H]1CN(C(=O)CCl)Cc2sc(Cl)cc21 [Compound 115] | 100 | – | inhibition at 27 µM (SUMO E1; [3]): 80% |
| C=CC(=O)N1Cc2sc(Cl)cc2[C@@H](c2csc3ccccc23)C1 [Compound 154] | < 1 | – | inhibition at 18 µM (SUMO E1; 18 uM compound, 15 min preincubation, read-out: SUMO E1 percent inhibition of adduct formation): < 1% |
